Measured values published in US10689381B2 (priority 2017, dated 2020).
Read-outs that look alike come from different tables or passages of the source.

Legend:
L1210 = experiment: cells; format: cell-based, mouse
Method: (§1) A population of cells (>1×10^6 cells/mL as determined with a hemocytometer) was diluted with Dulbecco's Modified Eagle Medium (DMEM, Gibco) containing 10% fetal bovine serum (FBS, Gibco) to give a final concentration of 30,000 cells/mL. To each well of a 96-well plate (Corning® Costar®) was added 100 μL of the cell media solution with a multichannel pipet.
(§2) The test compounds were then added to the plate as follows: test compounds were diluted in DMSO to a concentration of 1 mM. 10-Fold serial dilutions in DMSO were next performed on a separate 96-well plate. Fresh culture media (100 μL) was added to each well of cells resulting in 200 μL of medium per well followed by 2 μL of each test agent. Compounds were tested in duplicate (n=2-8 times) at six concentrations between 0-1000 nM or 0-10000 nM. Following the addition of compound, cultures were incubated for an additional 72 hours.
(§3) The plates were incubated at 37° C. for 5 minutes (L1210) or 15 min (HCT116 and HCT116/VM46).

HCT116 = experiment: cells; format: cell-based, human; conditions: for IC50: read-out: IC50 HCT116
Method: as §1, §2, §3

Structure (SMILES) | IC50 (L1210; Table 2) [nM] | IC50 (HCT116; Table 2) [nM] | other results
CCC1(NC(=O)c2ccc(OC(F)(F)F)cc2)CC2CN(CCc3c([nH]c4ccccc34)C(C(=O)OC)(c3cc4c(cc3OC)N(C)C3C(O)(C(=O)OC)C(OC(C)=O)C5(CC)C=CCN6CCC43C65)C2)C1 (stereo not drawn) [Compound 78] | 5.9 | 4.4 | 
CC[C@]1(NC(=O)c2ccc(Cl)cc2)C[C@H]2CN(CCc3c([nH]c4ccccc34)[C@@](C(=O)OC)(c3cc4c(cc3OC)N(C)[C@H]3[C@@](O)(C(=O)OC)[C@H](OC(C)=O)[C@]5(CC)C=CCN6CC[C@]43[C@@H]65)C2)C1 [Compound 47] | 3.1 | 3.2 | 
CCC1(NC(=O)c2ccc3cc(NC(=O)OC(C)(C)C)ccc3c2)CC2CN(CCc3c([nH]c4ccccc34)C(C(=O)OC)(c3cc4c(cc3OC)N(C)C3C(O)(C(=O)OC)C(OC(C)=O)C5(CC)C=CCN6CCC43C65)C2)C1 (stereo not drawn) [Compound 118] |  |  | IC50 (L1210; Table 4): 5 nM; IC50 (HCT116; Table 4): 6.5 nM
CCC1(NC(=O)c2ccc(C)c(NC(C)=O)c2)CC2CN(CCc3c([nH]c4ccccc34)C(C(=O)OC)(c3cc4c(cc3OC)N(C)C3C(O)(C(=O)OC)C(OC(C)=O)C5(CC)C=CCN6CCC43C65)C2)C1 (stereo not drawn) [Compound 103] | 5.4 | 4.3 | 
CC[C@]1(NC(=O)c2cccc(C(F)(F)F)c2)C[C@H]2CN(CCc3c([nH]c4ccccc34)[C@@](C(=O)OC)(c3cc4c(cc3OC)N(C)[C@H]3[C@@](O)(C(=O)OC)[C@H](OC(C)=O)[C@]5(CC)C=CCN6CC[C@]43[C@@H]65)C2)C1 [Compound 40] | 6.2 | 6.4 | 
CCC1(NC(=O)c2ccc3c(c2)OCO3)CC2CN(CCc3c([nH]c4ccccc34)C(C(=O)OC)(c3cc4c(cc3OC)N(C)C3C(O)(C(=O)OC)C(OC(C)=O)C5(CC)C=CCN6CCC43C65)C2)C1 (stereo not drawn) [Compound 174] |  |  | IC50 (L1210; Table 6): 0.6 nM; IC50 (HCT116; Table 6): 0.8 nM
CCC1(NC(=O)c2ccc(S(=O)(=O)F)cc2)CC2CN(CCc3c([nH]c4ccccc34)C(C(=O)OC)(c3cc4c(cc3OC)N(C)C3C(O)(C(=O)OC)C(OC(C)=O)C5(CC)C=CCN6CCC43C65)C2)C1 (stereo not drawn) [Compound 88] | 20 | 30 | 
CCC1(NC(=O)c2ccc3cc(OC)ccc3c2)CC2CN(CCc3c([nH]c4ccccc34)C(C(=O)OC)(c3cc4c(cc3OC)N(C)C3C(O)(C(=O)OC)C(OC(C)=O)C5(CC)C=CCN6CCC43C65)C2)C1 (stereo not drawn) [Compound 119] |  |  | IC50 (L1210; Table 4): 2.5 nM; IC50 (HCT116; Table 4): 3.5 nM
CC[C@]1(NC(=O)c2ccc(CNC(=O)OC(C)(C)C)cc2)C[C@H]2CN(CCc3c([nH]c4ccccc34)[C@@](C(=O)OC)(c3cc4c(cc3OC)N(C)[C@H]3[C@@](O)(C(=O)OC)[C@H](OC(C)=O)[C@]5(CC)C=CCN6CC[C@]43[C@@H]65)C2)C1 [Compound 66] | 0.76 | 0.7 | 
CCC1(NC(=O)c2ccc(C)cc2)CC2CN(CCc3c([nH]c4ccccc34)C(C(=O)OC)(c3cc4c(cc3OC)N(C)C3C(O)(C(=O)OC)C(OC(C)=O)C5(CC)C=CCN6CCC43C65)C2)C1 (stereo not drawn) [Compound 25] | 0.5 | 0.45 | potency relative to vinblastine (more potent) (HCT116; vinblastine-sensitive cell lines): 10 fold
CCC1(NC(=O)c2ccc3sccc3c2)CC2CN(CCc3c([nH]c4ccccc34)C(C(=O)OC)(c3cc4c(cc3OC)N(C)C3C(O)(C(=O)OC)C(OC(C)=O)C5(CC)C=CCN6CCC43C65)C2)C1 (stereo not drawn) [Compound 163] |  |  | IC50 (L1210; Table 6): 4.2 nM; IC50 (HCT116; Table 6): 4.9 nM
CCC1(NC(=O)C2CCc3ccccc3C2)CC2CN(CCc3c([nH]c4ccccc34)C(C(=O)OC)(c3cc4c(cc3OC)N(C)C3C(O)(C(=O)OC)C(OC(C)=O)C5(CC)C=CCN6CCC43C65)C2)C1 (mixture of isomers) [Compound 122] |  |  | IC50 (L1210; Table 4): 420 nM; IC50 (HCT116; Table 4): 580 nM
CC[C@]1(NC(=O)c2ccc(CC(C)C)cc2)C[C@H]2CN(CCc3c([nH]c4ccccc34)[C@@](C(=O)OC)(c3cc4c(cc3OC)N(C)[C@H]3[C@@](O)(C(=O)OC)[C@H](OC(C)=O)[C@]5(CC)C=CCN6CC[C@]43[C@@H]65)C2)C1 [Compound 36] | 25 | 10 | 
CCOc1ccc(C(=O)N[C@@]2(CC)C[C@H]3CN(CCc4c([nH]c5ccccc45)[C@@](C(=O)OC)(c4cc5c(cc4OC)N(C)[C@H]4[C@@](O)(C(=O)OC)[C@H](OC(C)=O)[C@]6(CC)C=CCN7CC[C@]54[C@@H]76)C3)C2)cc1Br [Compound 95] | 3.9 | 6.2 | 
CCSc1ccc(C(=O)NC2(CC)CC3CN(CCc4c([nH]c5ccccc45)C(C(=O)OC)(c4cc5c(cc4OC)N(C)C4C(O)(C(=O)OC)C(OC(C)=O)C6(CC)C=CCN7CCC54C76)C3)C2)cc1 (stereo not drawn) [Compound 86] | 4.9 | 6.1 | 
CCC1(NC(=O)c2ccc(SC)cc2)CC2CN(CCc3c([nH]c4ccccc34)C(C(=O)OC)(c3cc4c(cc3OC)N(C)C3C(O)(C(=O)OC)C(OC(C)=O)C5(CC)C=CCN6CCC43C65)C2)C1 (stereo not drawn) [Compound 84] | 0.4 | 0.5 | 
CCC1(NC(=O)c2cnc3ccccc3n2)CC2CN(CCc3c([nH]c4ccccc34)C(C(=O)OC)(c3cc4c(cc3OC)N(C)C3C(O)(C(=O)OC)C(OC(C)=O)C5(CC)C=CCN6CCC43C65)C2)C1 (stereo not drawn) [Compound 156] |  |  | IC50 (L1210; Table 6): 6.2 nM; IC50 (HCT116; Table 6): 5.9 nM
CCC1(NC(=O)c2ccsc2)CC2CN(CCc3c([nH]c4ccccc34)C(C(=O)OC)(c3cc4c(cc3OC)N(C)C3C(O)(C(=O)OC)C(OC(C)=O)C5(CC)C=CCN6CCC43C65)C2)C1 (stereo not drawn) [Compound 135] |  |  | IC50 (L1210; Table 5): 0.5 nM; IC50 (HCT116; Table 5): 0.7 nM
CC[C@]1(NS(=O)(=O)c2ccc3ccccc3c2)C[C@H]2CN(CCc3c([nH]c4ccccc34)[C@@](C(=O)OC)(c3cc4c(cc3OC)N(C)[C@H]3[C@@](O)(C(=O)OC)[C@H](OC(C)=O)[C@]5(CC)C=CCN6CC[C@]43[C@@H]65)C2)C1 [Compound 185] |  |  | IC50 (L1210; Table 7, C20′ sulfonamides): 50 nM; IC50 (HCT116; Table 7, C20′ sulfonamides): 60 nM
CCC1(NC(=O)c2ccccc2OC)CC2CN(CCc3c([nH]c4ccccc34)C(C(=O)OC)(c3cc4c(cc3OC)N(C)C3C(O)(C(=O)OC)C(OC(C)=O)C5(CC)C=CCN6CCC43C65)C2)C1 (stereo not drawn) [Compound 69] | 30 | 10 | 
CCC1(NS(=O)(=O)c2ccccc2)CC2CN(CCc3c([nH]c4ccccc34)C(C(=O)OC)(c3cc4c(cc3OC)N(C)C3C(O)(C(=O)OC)C(OC(C)=O)C5(CC)C=CCN6CCC43C65)C2)C1 (stereo not drawn) [Compound 179] |  |  | IC50 (L1210; Table 7, C20′ sulfonamides): 45 nM; IC50 (HCT116; Table 7, C20′ sulfonamides): 50 nM
CC[C@]1(NC(=O)c2cc(C)c(OCc3ccccc3)c(C)c2)C[C@H]2CN(CCc3c([nH]c4ccccc34)[C@@](C(=O)OC)(c3cc4c(cc3OC)N(C)[C@H]3[C@@](O)(C(=O)OC)[C@H](OC(C)=O)[C@]5(CC)C=CCN6CC[C@]43[C@@H]65)C2)C1 [Compound 100] | 30 | 30 | 
CCC1(NC(=O)c2ccc(C)c(N)c2)CC2CN(CCc3c([nH]c4ccccc34)C(C(=O)OC)(c3cc4c(cc3OC)N(C)C3C(O)(C(=O)OC)C(OC(C)=O)C5(CC)C=CCN6CCC43C65)C2)C1 (stereo not drawn) [Compound 101] | 0.6 | 0.7 | 
CCC1(NC(=O)C=Cc2ccccc2)CC2CN(CCc3c([nH]c4ccccc34)C(C(=O)OC)(c3cc4c(cc3OC)N(C)C3C(O)(C(=O)OC)C(OC(C)=O)C5(CC)C=CCN6CCC43C65)C2)C1 (stereo not drawn) [Compound 108] |  |  | IC50 (L1210; Table 3): 0.8 nM; IC50 (HCT116; Table 3): 0.9 nM
CC[C@]1(NC(=O)c2ccc3ncoc3c2)C[C@H]2CN(CCc3c([nH]c4ccccc34)[C@@](C(=O)OC)(c3cc4c(cc3OC)N(C)[C@H]3[C@@](O)(C(=O)OC)[C@H](OC(C)=O)[C@]5(CC)C=CCN6CC[C@]43[C@@H]65)C2)C1 [Compound 167] |  |  | IC50 (L1210; Table 6): 0.6 nM; IC50 (HCT116; Table 6): 0.6 nM
